Source: patent US11590117B2, “Treatment of a hematologic malignancy with 2-(4-chlorophenyl)-n-((2-(2,6-dioxopiperidin-3-yl)-1-oxoisoindolin-5-yl)methyl)-2,2-difluoroacetamide” (priority 2016, dated 2023)
pEC50: −log10 of the molar value. Where two headings read alike, the source gives them in different places.

Legend:
Assay in all cases: IncuCyte live cell imaging of cell viability, Red-labeled cell line
Format in all cases: cell-based
[1] = system: THP-1; conditions: Homo sapiens; Red-labeled THP-1; 96 hr; read-out: Inhibition of Cell Viability EC50
Protocol: (§1) Derivation of Red-labeled Acute Myeloid Leukemia Cell Lines: Twelve cell lines, including AML-193, HL-60, KG-1, ML-2, MOLM-13, MV-4-11, NOMO-1, OCI-AML2, OCI-AML3, SIG-M5, TF-1, and THP-1, were stably transduced with Red lentivirus. Cells were plated in 6-well plates in growth media, incubated with 8 µg/mL polybrene (EMD Millipore Cat no. TR-1003-G) followed by infection with CellPlayer™ NucLight™ Red-lentiviral particles (Essen Biosciences Cat no. 4478) at a multiplicity of infectivity (MOI) of 0.5 to 2.5 for 24 hours. MOI refers to the ratio of virus particles to cells. Virus-containing media was replaced with fresh growth media and incubated for an additional 24 to 48 hours, followed by selection with Zeocin (500 to 2000 μg/mL), a derivative of bleomycin (Life Technologies-Invitrogen Cat no. R250-01). Cells were selected with fresh Zeocin every 3 to 4 days for 3 to 8 weeks. Cells were periodically viewed using fluorescent microscopy for nuclear-restricted red fluorescence. Zeocin selection was terminated once the population was confirmed to stably fluoresce red. All Red-labeled cell lines were acclimated to EMEM containing 20% FBS, with or without GM-CSF supplementation, allowing for optimal live cell imaging.
(§2) Incubation of Cell Cultures with Compound 1: Compound 1 was provided for studies by Celgene chemistry group at a stock concentration of 30 mM in 20 μL dimethyl sulfoxide (DMSO) frozen. Costar 96-well cell culture plates (Corning Cat no. 3595) were coated with 100 μL of 10 µg/mL fibronectin (Sigma-Aldrich Cat no. F1141) for 4 hours at 37° C. and immediately used or refrigerated overnight for later use. Cells (3000 to 6000 cells) were plated in growth medi in fibronectin-coated 96-well plates and incubated for a minimum of a few hours to overnight. Cells were incubated with a 12-point concentration response in triplicate with Compound 1 ([…]) including DMSO and Media controls. A 3-fold serial dilution of Compound 1 starting from a concentration of 200 μM in 0.6% DMSO (diluted in Media) was performed. For most sensitive cell lines, a 3-fold serial dilution of Compound 1 starting from a concentration of 20 μM in 0.6% DMSO (diluted in media) was performed. A volume of 5 μL or 10 μL for each dilution was added to 100 μL or 200 μL cells, respectively (0.3% DMSO final) and incubated for live cell imaging.
(§3) Live Cell Imaging on IncuCyte Zoom: Following incubation of cells with Compound 1, diluted Caspase 3/7 reagent (Essen Biosciences Cat no. 4440) is added to each well. The Caspase-3/7 reagent couples the activated caspase-3/7 recognition motif (DEVD) to NucView™488, a DNA intercalating dye. The cleavage of substrate by activated caspase-3/7 results in the release of the DNA dye and green fluorescent staining of nuclear DNA. This allows imaging of cells undergoing caspase-3/7 mediated apoptosis over time. Caspase-3/7 activation was quantified using the IncuCyte™ ZOOM basic analyzer. Red-labeled cell lines were also imaged over time using the IncuCyte™ ZOOM basic analyzer, for determination of both cell doubling time and Compound 1 effect on cell viability. Experiments were performed at least two times in each cell line.
(§4) Next, a 4 parameter log-logistic model was used to determine relative EC50 at each time point by the ‘drm’ function from the R ‘drc’ package (Ritz C, Streibig J C. Bioassay Analysis using R. J. Statist. Software 2005; 12(5):1-22). Goodness of fit was measured by R squared (coefficient of determination or the amount of variation explained by the model fit) of ≥80%, and EC50 parameter was assessed by having a ratio of standard error to the parameter of ≤40%, and the presence of at least one concentration point above and below the reported EC50.
(§5) Twelve Red-labeled human AML cell lines, established as described above, were incubated with Compound 1 dose range (0 to 10 μM) and Red fluorescence or Object count was imaged over time, as described above. […]

[2] = system: OCI-AML3; conditions: Homo sapiens, read-out: Inhibition of Cell Viability EC50
Protocol: as §1, §2, §3, §4, §5

[3] = system: SIG-M5; conditions: Homo sapiens, read-out: Inhibition of Cell Viability EC50
Protocol: as §1, §2, §3, §4, §5

[4] = system: KG-1; conditions: Homo sapiens, Red-labeled KG-1, read-out: Inhibition of Cell Viability EC50
Protocol: as §1, §2, §3, §4, §5

[5] = system: HL-60; conditions: Homo sapiens, Red-labeled HL-60, read-out: Inhibition of Cell Viability EC50
Protocol: as §1, §2, §3, §4, §5

[6] = system: Nomo-1; conditions: Homo sapiens, Red-labeled NOMO-1, read-out: Inhibition of Cell Viability EC50
Protocol: as §1, §2, §3, §4, §5

[7] = system: ML-2; conditions: Homo sapiens, Red-labeled ML-2, read-out: Inhibition of Cell Viability EC50
Protocol: as §1, §2, §3, §4, §5

[8] = system: AML-193; conditions: Homo sapiens, Red-labeled AML-193, read-out: Inhibition of Cell Viability EC50
Protocol: as §1, §2, §3, §4, §5

## O=C1CCC(N2Cc3cc(CNC(=O)C(F)(F)c4ccc(Cl)cc4)ccc3C2=O)C(=O)N1 (centres unmarked) [Compound 1, 2-(4-chlorophenyl)-N-((2-(2,6-dioxopiperidin-3-yl)-1-oxoisoindolin-5-yl)methyl)-2,2-difluoroacetamide]
[1]
  pEC50: 7.21
[2]; OCI-AML-3, 72 hr
  pEC50: 6.74
[2]; OCI-AML-3, 96 hr
  pEC50: 6.73
[3]; 72 hr
  pEC50: 6.81
[3]; 96 hr
  pEC50: 6.75
[4]; 48 hr
  pEC50: 8.15
[4]; 72 hr
  pEC50: 8.15
[4]; 96 hr
  pEC50: 8.15
[5]; 48 hr
  pEC50: 8.05
[5]; 72 hr
  pEC50: 8.15
[5]; 96 hr
  pEC50: 8.22
[6]; 48 hr
  pEC50: 7.72
[6]; 72 hr
  pEC50: 7.77
[6]; 96 hr
  pEC50: 7.77
[7]; 72 hr
  pEC50: 8.40
[7]; 96 hr
  pEC50: 8.40
[8]; 24 hr
  pEC50: 8.00
[8]; 48 hr
  pEC50: 8.40
[8]; 72 hr
  pEC50: 8.52
[8]; 96 hr
  pEC50: 8.70
